Assay results taken from PMC10294390 (BMC Complementary Medicine and Therapies, 2023).

Tests used:
[1] = tested on: SW1116 human colon cancer cell line; experiment: MTT assay, single and schedule-dependent combined treatment; assay type: cell-based; conditions: Homo sapiens, SW 1116, PPC alone, MTT, Fig. 1B
Experimental: (§1) The plates were washed, and PPCs [Cur, Kmf, or Que (60 or 120 µM), or Rsv (40 or 80 µM)] were added, followed by incubation at 37 °C for 48 h. For inverted sequential treatment, PPC [Cur, Kmf, or Que (60 or 120 µM), or Rsv (40 or 80 µM)] was added and incubated at 37 °C for 24 h. […] Cell growth was monitored as previously described.

[2] = tested on: SW837 human rectum cancer cell line; experiment: as above; assay type: cell-based; conditions: PPC alone, MTT, Fig. 1C; for cytotoxicity mean: SW837; for IC50: Homo sapiens, SW837, SW837, read-out: IC50
Experimental: as §1

SW1116 cells [3] = experiment: Cell cycle analysis by flow cytometry (PI); assay type: cell-based, human; conditions: 72 h
Experimental: (§2) The cells were subsequently processed using a DNA-prep kit and DNA-Prep EPICS workstation. The cells were treated with a non-ionic detergent to permeabilize the cell membrane, followed by propidium iodide (PI) and RNase, and incubated at 15–20 °C for 15 min. The cells were resuspended in binding buffer at a concentration of 3–10 × 10^6 cells/ml for optimal staining. Fluorescence was measured using a flow cytometer (Beckman Coulter, Inc.), and the percentage of cells in the different phases of the cell cycle was calculated using the Phoenix statistical software package, Advanced DNA cell cycle software (Phoenix Flow System).

SW1116 cells [4] = experiment: Annexin V-FITC/PI double staining, flow cytometry; assay type: cell-based, human; conditions: SW1116, 72 h
Experimental: (§3) The levels of cell surface phosphatidylserine were determined to monitor the type of cell death and the kinetics of apoptosis. The CRC cell lines SW1116 and SW837 were seeded (2.5 × 10^5 cells/well) into 24-well plates and incubated in a non-CO2 incubator at 37 °C for 18 h. […] The cells were subsequently washed twice with HBSS and harvested using trypsin. Finally, the cells were double-stained using the Annexin V-FITC-Flous staining kit, according to the manufacturer’s instructions (Roche Diagnostic GmbH). Annexin V-Flous labelling solution containing Annexin V-FITC and PI (100 µl) was added to both the treated and control cell groups and incubated at 15–20 °C for 15 min. The cells (1 × 10^6 cells/ml) were then resuspended in binding buffer, and fluorescence was monitored using flow cytometry (FC500; Beckman Coulter, Inc.).

SW1116 cells [5] = experiment: DNA fragmentation assay; assay type: cell-based, human; conditions: Sora 5 µM, PPC 200 and 400 µM, simultaneous combinations, 72 h, Fig. 8A, C
Experimental: (§4) Induction of apoptosis was monitored using a DNA fragmentation assay following the manufacturer’s instructions (Apoptotic DNA Ladder Detection kit; Abcam). […] Cells were subsequently incubated at 37 °C for 72 h. The cells were then trypsinized, harvested, washed, pelleted, and lysed using Tris–EDTA (TE) lysis buffer (35 µl). Enzyme A solution (RNase; 5 µl) was added, followed by incubation at 37 °C for 10 min. Enzyme B solution (proteinase; 5 µl) was then added, followed by incubation at 50 °C for 30 min. Ammonium acetate solution (5 µl) and isopropanol (50 µl) were added to each sample and incubated at -20 °C for 10 min. Finally, the DNA was pelleted, washed with 0.5 ml 70% methanol, and dissolved in 30 µl DNA suspension buffer. The extracted DNA samples were loaded onto a 1.2% agarose gel, along with a loading marker (1 kb DNA ladder), and subjected to electrophoresis, using a running buffer containing 1.35 µg/ml ethidium bromide at 5 V/cm for 1 h. Ethidium bromide-stained DNA bands were visualized using transillumination with UV light.

[6] = tested on: CRL1554 normal human fibroblast cells; experiment: MTT assay, cytotoxicity of PPCs on normal fibroblasts; conditions: PPCs 20-160 µM, 72 h
Experimental: The cytotoxicity of a panel of 14 PPCs (Kmf, Cur, Que, Rsv, HHG, Hsp, BetA, IC3, Cmr, Sul, Irt, Lyc, Sil, and Snn) on CRL1554 normal human fibroblast cells was determined using the MTT assay [16]. CRL1554 cells were seeded (27 × 10^3 cells/well) into 96-well flat-bottomed plates and incubated at 37 °C for 18 h. Subsequently, the medium was removed, and the cells were washed with Hanks balanced salt solution (HBSS; 100 µl/well), and treated with various concentrations of PPCs (20, 40, 60, 80, 100, 120, 140 and 160 µM) for 72 h. The cells were then washed twice with HBSS, and 100 μl medium with 20 µl (5 mg/ml) MTT solution in PBS was added to each well and incubated at 37 °C for 4 h. The supernatants were aspirated, and 200 μL of dimethyl sulfoxide (DMSO) was added to dissolve the formazan crystals. Finally, the absorbance was measured using a multiwell spectrophotometer at two wavelengths (λ, 492 and 570 nm).

SW837 cells [7] = experiment: Cell cycle analysis by flow cytometry (PI); assay type: cell-based, human; conditions: 72 h
Experimental: as §2

SW837 cells [8] = experiment: Annexin V-FITC/PI double staining, flow cytometry; assay type: cell-based, human; conditions: SW837, 72 h
Experimental: as §3

SW837 cells [9] = experiment: DNA fragmentation assay; assay type: cell-based, human; conditions: Sora 5 µM, PPC 200 and 400 µM, sequential combinations, 72 h, Fig. 8B, D
Experimental: as §4

SW1116 and SW837 cells = experiment: Mitochondrial membrane potential (MMP) analysis, MitoNIR dye, flow cytometry; assay type: cell-based, human; conditions: Cur 400 µM alone; 72 h; cell line not stated
Experimental: The inner mitochondrial membrane is rich in negatively charged glycoproteins and is therefore negatively charged. The accumulation of high concentrations of protons outside of the inner membrane establishes the transmembrane potential. The MMP was monitored using the NIR Mitochondrial Membrane Potential Assay kit (Abcam) according to the manufacturer’s protocol. Briefly, cells (2.5 × 10^5 cells/well) were seeded into 24-well plates and incubated in a non-CO2 incubator at 37 °C for 18 h. […] MitoNIR Dye (200X; 5 µl/ml) was added to each sample, followed by incubation at 37 °C for 15–30 min. The cells were subsequently pelleted and resuspended in 1 ml assay buffer. Flow cytometry, in the FL4 channel (λExcitation/λEmission, 635/660 nm), was used to monitor the fluorescence intensity.

DLD-1 colon tumor model = tested on: DLD-1 colon tumor model; design: method as in PMID 14692718; conditions: cited from earlier work

## O=c1c(O)c(-c2ccc(O)c(O)c2)oc2cc(O)cc(O)c12 [Que, quercetin]
[1]
  IC50: 160 µM
[2]
  cytotoxicity mean: 19 ± 3%
SW1116 cells [3]; PPC 200 µM alone
  %G0/G1 (cells in G0/G1 phase): 39.6%
  %G2/M (cells in G2/M phase): 15.0%
  %S (cells in S phase): 45.0%
SW1116 cells [3]; PPC 400 µM alone
  %G0/G1 (cells in G0/G1 phase): 38.5%
  %G2/M (cells in G2/M phase): 14.1%
  %S (cells in S phase): 47.2%
  %SubG1 (cells in sub G1): 8.4%
SW1116 cells [4]; PPC 200 µM alone
  B1, percentage of necrotic cells: 4.5%
  B2, percentage of late apoptotic cells: 24.5%
  B4, percentage of early apoptotic cells: 4.2%
SW1116 cells [4]; PPC 400 µM alone
  B1, percentage of necrotic cells: 31.1%
  B2, percentage of late apoptotic cells: 34.1%
  B4, percentage of early apoptotic cells: 0.8%
SW1116 cells [5]
  induction of apoptosis as indicated by DNA fragmentation: marked induction of apoptosis
[6]
  cytotoxicity: 0.0–16.2%
[6]; listed as quercetin
  cytotoxicity: ≤ 20%

## Oc1ccc(/C=C/c2cc(O)cc(O)c2)cc1 [Rsv, resveratrol]
[1]
  IC50: 70 µM
[2]
  IC50: 140 µM
[6]
  cytotoxicity: 0.0–3.3%
[6]; listed as resveratrol
  cytotoxicity: ≤ 20%

## CC(C)=CCC/C(C)=C/C=C/C(C)=C/C=C/C(C)=C/C=C/C=C(C)/C=C/C=C(C)/C=C/C=C(\C)CCC=C(C)C [Lyp, lycopene]
[6]
  cytotoxicity: 39.7–66.6%

## COc1cc(/C=C/C(=O)CC(=O)/C=C/c2ccc(O)c(OC)c2)ccc1O [Cur, curcumin]
[1]
  IC50: 60 µM
[2]
  IC50: 150 µM
SW1116 cells [3]; PPC 200 µM alone
  %G0/G1 (cells in G0/G1 phase): 49.1%
  %G2/M (cells in G2/M phase): 13.6%
  %S (cells in S phase): 37.1%
SW1116 cells [3]; PPC 400 µM alone
  %G0/G1 (cells in G0/G1 phase): 28.5%
  %G2/M (cells in G2/M phase): 11.3%
  %S (cells in S phase): 60%
  %SubG1 (cells in sub G1): 12%
SW837 cells [7]; PPC 200 µM alone
  %G0/G1 (cells in G0/G1 phase): 49.1%
  %G2/M (cells in G2/M phase): 6.2%
  %S (cells in S phase): 44.6%
  %SubG1 (cells in sub G1): 14.7%
SW837 cells [7]; PPC 400 µM alone
  %G0/G1 (cells in G0/G1 phase): 58.1%
  %G2/M (cells in G2/M phase): 2.4%
  %S (cells in S phase): 39.4%
  %SubG1 (cells in sub G1): 2.9%
SW1116 cells [4]; PPC 200 µM alone
  B1, percentage of necrotic cells: 5.9%
  B2, percentage of late apoptotic cells: 11.5%
  B4, percentage of early apoptotic cells: 4.6%
SW1116 cells [4]; PPC 400 µM alone
  B1, percentage of necrotic cells: 18.2%
  B2, percentage of late apoptotic cells: 35.2%
  B4, percentage of early apoptotic cells: 3.8%
SW837 cells [8]; PPC 200 µM alone
  B1, percentage of necrotic cells: 60.9%
  B2, percentage of late apoptotic cells: 26.6%
  B4, percentage of early apoptotic cells: 0.3%
SW837 cells [8]; PPC 400 µM alone
  B1, percentage of necrotic cells: 67.9%
  B2, percentage of late apoptotic cells: 32.3%
  B4, percentage of early apoptotic cells: 0.0%
SW1116 cells [5]
  induction of apoptosis as indicated by DNA fragmentation: marked induction of apoptosis
SW837 cells [9]
  DNA fragmentation: increased levels of DNA fragmentation
SW1116 and SW837 cells
  change in MMP (shift of MitoNIR red fluorescence): no change in MMP
[6]
  cytotoxicity: 0.0%
[6]; listed as curcumin
  cytotoxicity: ≤ 20%

## OCc1c[nH]c2ccccc12 [I3C, indol-3-carbinol]
[6]
  cytotoxicity: 0.2–9.2%

## O=c1ccc2ccccc2o1 [Cmr, coumarin]
[6]
  cytotoxicity: 7.4–11.34%

## COc1cc(C2Oc3cc([C@H]4Oc5cc(O)cc(O)c5C(=O)[C@@H]4O)ccc3OC2CO)ccc1O (stereo partly shown) [Sin, silibinin]
[6]
  cytotoxicity: 0.0–5.54%

## O=c1c(O)c(-c2ccc(O)cc2)oc2cc(O)cc(O)c12 [Kmf, kaempferol]
[1]
  IC50: 100 µM
[2]
  cytotoxicity mean: 21 ± 3.5%
SW837 cells [7]; PPC 200 µM alone
  %G0/G1 (cells in G0/G1 phase): 60.4%
  %G2/M (cells in G2/M phase): 5.9%
  %S (cells in S phase): 33.6%
  %SubG1 (cells in sub G1): 1.3%
SW837 cells [7]; PPC 400 µM alone
  %G0/G1 (cells in G0/G1 phase): 59.9%
  %G2/M (cells in G2/M phase): 6.3%
  %S (cells in S phase): 33.6%
  %SubG1 (cells in sub G1): 2.7%
SW837 cells [8]; PPC 200 µM alone
  B1, percentage of necrotic cells: 4.9%
  B2, percentage of late apoptotic cells: 20.5%
  B4, percentage of early apoptotic cells: 2.5%
SW837 cells [8]; PPC 400 µM alone
  B1, percentage of necrotic cells: 36.8%
  B2, percentage of late apoptotic cells: 44.4%
  B4, percentage of early apoptotic cells: 2.8%
SW837 cells [9]
  DNA fragmentation: increased levels of DNA fragmentation
[6]
  cytotoxicity: 0.0–1.1%
[6]; listed as kaempferol
  cytotoxicity: ≤ 20%

## COc1ccc([C@@H]2CC(=O)c3c(O)cc(O)cc3O2)cc1O [Hsp, hesperetin]
[6]
  cytotoxicity: 0.0–4.4%

## COC(=O)C[C@](O)(CCCC(C)(C)O)C(=O)O[C@@H]1C(OC)=C[C@]23CCCN2CCc2cc4c(cc2[C@H]13)OCO4 [HHG, homoharringtonine]
[6]
  cytotoxicity: 99–100%

## CC1=C(CC(=O)O)c2cc(F)ccc2/C1=C\c1ccc([S+](C)[O-])cc1 (stereo not shown) [Sul, sulanidac]
[6]
  cytotoxicity: 38.94–98%

## C=C(C)[C@@H]1CC[C@]2(C(=O)O)CC[C@]3(C)[C@H](CC[C@@H]4[C@@]5(C)CC[C@H](O)C(C)(C)[C@@H]5CC[C@]43C)[C@@H]12 [BetA, betulinic acid]
[6]
  cytotoxicity: 69–97.5%

## CCc1c2c(nc3ccc(OC(=O)N4CCC(N5CCCCC5)CC4)cc13)-c1cc3c(c(=O)n1C2)COC(=O)[C@]3(O)CC [Irt, irinotecan]
DLD-1 colon tumor model
  delay of tumor cell growth: 71%
[6]
  cytotoxicity: 44.9–81.9%
